Experimental data as given in ChEMBL document CHEMBL4011606, “Synthesis and antiplasmodial activity of novel indoleamide derivatives bearing sulfonamide and triazole pharmacophores” (Eur J Med Chem, 2017).

How the values were obtained:
[1] = tested on: Plasmodium falciparum; assay: Antiplasmodial activity against chloroquine-sensitive Plasmodium falciparum 3D7 infected in human erythrocytes measured after 72 hrs by SYBR green 1 dye based fluorescence assay; assay type: functional, cell-based; details: 3D7, 72 h
[2] = tested on: Plasmodium falciparum; assay: Antiplasmodial activity against chloroquine-resistant Plasmodium falciparum K1 infected in human erythrocytes measured after 72 hrs by SYBR green 1 dye based fluorescence assay; assay type: functional, cell-based; details: K1, 72 h
[3] = Cytotoxicity against African green monkey Vero cells measured after 3 days by resazurin dye based fluorescence assay; assay type: cell-based; details: chlorocebus sabaeus
[4] = Selectivity index, ratio of CC50 for African green monkey Vero cells to IC50 for chloroquine-sensitive Plasmodium falciparum 3D7; assay type: toxicity; details: read-out: Ratio CC50/IC50
[5] = Selectivity index, ratio of CC50 for African green monkey Vero cells to IC50 for chloroquine-resistant Plasmodium falciparum K1; assay type: toxicity; details: read-out: Ratio CC50/IC50
[6] = Resistance index, ratio of IC50 for chloroquine-resistant Plasmodium falciparum K1 to IC50 for chloroquine-sensitive Plasmodium falciparum 3D7; assay type: functional

Row | SMILES | IC50 [1] [µM] | IC50 [2] [µM] | CC50 at 72 h [3] [µM] | selectivity ratio [4] | selectivity ratio [5] | Ratio IC50 [6]
1 | O=C(CCCc1cn(S(=O)(=O)c2ccc(F)cc2)c2ccccc12)NC12CC3CC(CC(C3)C1)C2 | 2.94 | 3.73 | > 250 | > 85 | > 67 | 1.26
2 | O=C(CCCc1cn(S(=O)(=O)c2cccs2)c2ccccc12)NC1CCCCCC1 | > 10 | 5.55 | – | – | – | < 0.55
3 | O=C(CCCc1cn(Cc2cn(Cc3ccccc3)nn2)c2ccccc12)NC1CCCCCC1 | > 10 | > 10 | – | – | – | > 1
4 | O=C(Cn1cc(Cn2cc(CCCC(=O)NC34CC5CC(CC(C5)C3)C4)c3ccccc32)nn1)Nc1ccc(F)cc1 | > 10 | 8.68 | – | – | – | < 0.86
5 | C=CCn1cc(CCCC(=O)NC23CC4CC(CC(C4)C2)C3)c2ccccc21 | 5.04 | 7.56 | – | – | – | 1.5
6 | O=C(Cc1c[nH]c2ccccc12)NCc1cn(CC(=O)Nc2ccc(F)cc2)nn1 | 5.16 | 7.38 | – | – | – | 1.43
7 | O=C(CCCc1cn(Cc2cn(Cc3ccccc3)nn2)c2ccccc12)NC12CC3CC(CC(C3)C1)C2 | 2.16 | > 10 | > 250 | > 115 | > 25 | > 4.62
8 | O=C(Cn1cc(Cn2cc(CCCC(=O)NC3CCCCCC3)c3ccccc32)nn1)Nc1ccccc1Cl | > 10 | > 10 | – | – | – | > 1
9 | O=C(CCCc1cn(CCN2CCCCC2)c2ccccc12)NC12CC3CC(CC(C3)C1)C2 | 5.63 | > 10 | – | – | – | > 1.37
10 | O=C(Cc1c[nH]c2ccccc12)NCc1cn(CC(=O)Nc2ccc(I)cc2)nn1 | 3.83 | 2.25 | > 250 | > 65 | > 111 | 0.58
11 | CCCCCCCn1cc(CCCC(=O)NC23CC4CC(CC(C4)C2)C3)c2ccccc21 | 1.91 | 3.53 | > 250 | > 130 | > 70 | 1.84
12 | CCN(CC)CCCC(C)Nc1ccnc2cc(Cl)ccc12 (stereo not given) [CHLOROQUINE] | – | – | 226 | – | – | –
13 | Cc1ccc(NC(=O)Cn2cc(Cn3cc(CCCC(=O)NC4CCCCCC4)c4ccccc43)nn2)cc1C | > 10 | > 10 | – | – | – | > 1
14 | O=C(CCCc1cn(S(=O)(=O)c2ccccc2)c2ccccc12)NC12CC3CC(CC(C3)C1)C2 | 5.04 | 2.46 | > 250 | > 49 | > 101 | 0.48
15 | O=C(CCCc1cn(S(=O)(=O)c2ccccc2)c2ccccc12)NC1CCCCCC1 | 7.37 | 6.06 | – | – | – | 0.82
16 | CC(C)(C)c1ccc(S(=O)(=O)n2cc(CCC(=O)NC3CCCCCC3)c3ccccc32)cc1 | 6.24 | 5.76 | – | – | – | 0.92
17 | C=CCn1cc(CCCC(=O)NC2CCCCCC2)c2ccccc21 | > 10 | > 10 | – | – | – | > 1
18 | Cc1ccc(NC(=O)Cn2cc(Cn3cc(CCCC(=O)NC45CC6CC(CC(C6)C4)C5)c4ccccc43)nn2)cc1C | > 10 | 2.5 | > 250 | > 25 | > 100 | < 0.25
19 | O=C(Cn1cc(Cn2cc(CCCC(=O)NC3CCCCCC3)c3ccccc32)nn1)Nc1ccc(Cl)cc1 | > 10 | > 10 | – | – | – | > 1
20 | O=C(CCCc1cn(Cc2ccc(Br)cc2)c2ccccc12)NC1CCCCCC1 | > 10 | > 10 | – | – | – | > 1
21 | O=C(Cc1c[nH]c2ccccc12)NCc1cn(CC(=O)Nc2ccc(Cl)cc2)nn1 | > 10 | > 10 | – | – | – | > 1
22 | O=C(Cn1cc(Cn2cc(CCCC(=O)NC34CC5CC(CC(C5)C3)C4)c3ccccc32)nn1)Nc1ccc(I)cc1 | > 10 | > 10 | – | – | – | > 1
23 | O=C(CCCc1cn(Cc2ccc(F)cc2)c2ccccc12)NC12CC3CC(CC(C3)C1)C2 | 2.2 | 3.5 | > 250 | > 113 | > 71 | 1.59
24 | CC(C)(C)c1ccc(S(=O)(=O)n2cc(CCCC(=O)NC3CCCCCC3)c3ccccc32)cc1 | 2 | 1.6 | > 250 | > 125 | > 156 | 0.8
25 | O=C(Cn1cc(Cn2cc(CCCC(=O)NC34CC5CC(CC(C5)C3)C4)c3ccccc32)nn1)Nc1ccc(Br)cc1 | > 10 | 8.78 | – | – | – | < 0.87
26 | O=C(Cn1cc(Cn2cc(CCCC(=O)NC3CCCCCC3)c3ccccc32)nn1)Nc1ccc(F)c(Cl)c1 | 9.9 | 8.64 | – | – | – | 0.87

Row | SMILES | IC50 [1] [µM] | IC50 [2] [µM] | CC50 at 72 h [3] [µM] | selectivity ratio [4] | selectivity ratio [5] | Ratio IC50 [6]
27 | Cc1cc(S(=O)(=O)n2cc(CCCC(=O)NC3CCCCCC3)c3ccccc32)c(C)cc1Cl | 2.17 | 2.19 | > 250 | > 115 | > 114 | 1
28 | Cc1ccc(NC(=O)Cn2cc(CNC(=O)Cc3c[nH]c4ccccc34)nn2)cc1C | 7.02 | 6.46 | – | – | – | 0.87
29 | CC(C)(C)c1ccc(S(=O)(=O)n2cc(CCCC(=O)NC34CC5CC(CC(C5)C3)C4)c3ccccc32)cc1 | 1.87 | 1.69 | > 250 | > 133 | > 147 | 0.9
30 | O=C(CCCc1c[nH]c2ccccc12)NC12CC3CC(CC(C3)C1)C2 | > 10 | > 10 | – | – | – | > 1
31 | O=C(CCCc1cn(Cc2ccccc2)c2ccccc12)NC12CC3CC(CC(C3)C1)C2 | 3.6 | 4.2 | > 250 | > 69 | > 59 | 1.16
32 | O=C(CCCc1cn(S(=O)(=O)c2cccc3ccccc23)c2ccccc12)NC1CCCCCC1 | 4.67 | 3.68 | > 250 | > 53 | > 67 | 0.78
33 | O=C(Cc1c[nH]c2ccccc12)NCc1cn(CC(=O)Nc2ccccc2Cl)nn1 | > 10 | > 10 | – | – | – | > 1
34 | O=C(Cn1cc(Cn2cc(CCCC(=O)NC34CC5CC(CC(C5)C3)C4)c3ccccc32)nn1)Nc1ccc(Cl)cc1 | > 10 | > 10 | – | – | – | > 1
35 | O=C(CCCc1cn(Cc2ccc(Cl)cc2)c2ccccc12)NC12CC3CC(CC(C3)C1)C2 | 3.4 | 5.3 | > 250 | > 73 | > 47 | 1.55
36 | O=C(Cn1cc(Cn2cc(CCCC(=O)NC3CCCCCC3)c3ccccc32)nn1)Nc1ccc(I)cc1 | > 10 | > 10 | – | – | – | > 1
37 | CC(C)(C)c1ccc(S(=O)(=O)n2cc(CCCC(=O)NC3C4CC5CC(C4)CC3C5)c3ccccc32)cc1 (stereo not given) | 3.35 | 4.26 | > 250 | > 74 | > 58 | 1.27
38 | Cc1ccc(S(=O)(=O)n2cc(CCCC(=O)NC3CCCCCC3)c3ccccc32)cc1 | 3.38 | 3.27 | > 250 | > 73 | > 76 | 0.96
39 | O=C(CCCc1cn(Cc2ccc(Cl)cc2)c2ccccc12)NC1CCCCCC1 | > 10 | > 10 | – | – | – | > 1
40 | CC(C)(C)c1ccc(S(=O)(=O)n2cc(CCC(=O)NC34CC5CC(CC(C5)C3)C4)c3ccccc32)cc1 | 5.8 | 6.19 | – | – | – | 1.06
41 | O=C(CCCc1c[nH]c2ccccc12)NC1CCCCCC1 | > 10 | > 10 | – | – | – | > 1
42 | CCCn1cc(CCCC(=O)NC23CC4CC(CC(C4)C2)C3)c2ccccc21 | 4.79 | 7.37 | – | – | – | 1.53
43 | O=C(CCCc1cn(CCN2CCCC2)c2ccccc12)NC12CC3CC(CC(C3)C1)C2 | 7.03 | 9.67 | – | – | – | 1.37
44 | Cc1cc(S(=O)(=O)n2cc(CCCC(=O)NC34CC5CC(CC(C5)C3)C4)c3ccccc32)c(C)cc1Cl | 1.93 | 2.12 | > 250 | > 129 | > 112 | 1.15
45 | O=C(Cn1cc(Cn2cc(CCCC(=O)NC3CCCCCC3)c3ccccc32)nn1)Nc1ccc(Br)cc1 | > 10 | 8.7 | – | – | – | < 0.87
46 | O=C(Cc1c[nH]c2ccccc12)NCc1cn(CC(=O)Nc2ccc(F)c(Cl)c2)nn1 | > 10 | > 10 | – | – | – | > 1
47 | O=C(CCCc1cn(Cc2ccc(Br)cc2)c2ccccc12)NC12CC3CC(CC(C3)C1)C2 | 3.15 | 3.35 | > 250 | > 79 | > 74 | 1.06
48 | O=C(Cc1c[nH]c2ccccc12)NCc1cn(CC(=O)Nc2ccc(Br)cc2)nn1 | 8.77 | > 10 | – | – | – | > 1.14
49 | O=C(CCCc1cn(Cc2ccccc2)c2ccccc12)NC1CCCCCC1 | 9.56 | > 10 | – | – | – | > 1.04
50 | Cn1cc(CCCC(=O)NC23CC4CC(CC(C4)C2)C3)c2ccccc21 | 9.73 | > 10 | – | – | – | > 1.02
51 | Cn1cc(CCCC(=O)NC2CCCCCC2)c2ccccc21 | > 10 | > 10 | – | – | – | > 1
52 | O=C(Cn1cc(Cn2cc(CCCC(=O)NC3CCCCCC3)c3ccccc32)nn1)Nc1ccc(F)cc1 | 8.12 | 7.82 | – | – | – | 0.96
